Data taken from PMC8353992 (Journal of medicinal chemistry, 2021).

Tests used:
[1] = for decrease in CLint compared to 36: human, rat, s9
[2] = human, pH 7.4
[3] = target: SARS-CoV-2 3CL^pro (Severe acute respiratory syndrome coronavirus 2, UniProt P0DTD1); assay type: biochemical

**Q.** With `O=C(Cc1cccnc1)N(Cc1cccc(Cl)c1)c1ccc(-c2cn[nH]c2)cc1` [Compound 42, N-[(3-Chlorophenyl)methyl]-N-[4-(1H-pyrazol-4-yl)phenyl]-2-(3-pyridyl)acetamide] as the compound, how does the “decrease in CLint compared to 36” value [1] read?
**A.** 2 fold

**Q.** With `O=C(Cc1cncnc1)N(Cc1cccc(Cl)c1)c1ccc(-c2cn[nH]c2)cc1` [Compound 43, N-[(3-Chlorophenyl)methyl]-N-[4-(1H-pyrazol-4-yl)phenyl]-2-pyrimidin-5-yl-acetamide] as the compound, how does the “decrease in CLint compared to 36” value [1] read?
**A.** 4 fold

**Q.** Which results are given for `O=C(Cn1nnc2ccccc21)N(Cc1cccc(Cl)c1)c1ccc(-c2cn[nH]c2)cc1` [Compound 36, N-(4-(1H-Pyrazol-4-yl)phenyl)-2-(1H-benzo[d][1,2,3]triazol-1-yl)-N-(3-chlorobenzyl)acetamide]?
**A.** M1 metabolite formation (oxidation of the benzylic 3-chlorophenyl ring) [2]: 60%; M3 metabolite formation (cleavage of the 3-chlorobenzyl group) [2]: 7%

**Q.** With `O=C(Nc1ccc(N(Cc2ccsc2)C(=O)Cn2nnc3ccccc32)cc1)C1CC1` [Compound 1, reference compound] as the compound, how does the microsomal clearance ([1]; microsomes) read?
**A.** exceptionally high

**Q.** For `O=C(Cn1nnc2ccccc21)N(Cc1ccsc1)c1ccc(-c2cccnc2)cc1` [Compound 8, 2-(1H-Benzo[d][1,2,3]triazol-1-yl)-N-(4-(pyridin-3-yl)phenyl)-N-(thiophen-3-ylmethyl)acetamide], which “ligand efficiency (LE)” value [3] is on record?
**A.** 0.27
